Results as given in PubChem BioAssay (NCI).
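96-well plates; 48 h exposure; 5 concentrations. Endpoints by linear interpolation between flanking doses. Not reached: highest tested concentration assigned. The concentration for 50% growth inhibition is given as GI50. The concentration for full growth arrest is given as TGI.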

Key:
Assay in all cases: growth of human tumour cells (NCI), 48 h
HL-60(TB) leukemia = tested on: HL-60(TB) leukemia
UACC-257 melanoma = tested on: UACC-257 melanoma
M14 melanoma = tested on: M14 melanoma
NCI/ADR-RES ovarian = tested on: NCI/ADR-RES ovarian
UACC-62 melanoma = tested on: UACC-62 melanoma
SF-295 CNS = tested on: SF-295 CNS
HT29 colon = tested on: HT29 colon
786-0 renal = tested on: 786-0 renal
U251 CNS = tested on: U251 CNS
MCF7 breast = tested on: MCF7 breast

Structure (SMILES)	TGI (HL-60(TB) leukemia)	TGI (UACC-257 melanoma)	TGI (M14 melanoma)	TGI (NCI/ADR-RES ovarian)	TGI (UACC-62 melanoma)	TGI (SF-295 CNS)	TGI (HT29 colon)	TGI (786-0 renal)	TGI (U251 CNS)	TGI (MCF7 breast)	GI50 (HL-60(TB) leukemia)	GI50 (UACC-257 melanoma)	GI50 (M14 melanoma)	GI50 (NCI/ADR-RES ovarian)	GI50 (UACC-62 melanoma)	GI50 (SF-295 CNS)	GI50 (HT29 colon)	GI50 (786-0 renal)	GI50 (U251 CNS)	GI50 (MCF7 breast)
C=C(C)C1Cc2cc(C(C)=O)ccc2O1 (stereo not given)	> 100 µM	> 100 µM	> 100 µM	> 100 µM	> 100 µM	> 100 µM	> 100 µM	> 100 µM	> 100 µM	> 100 µM	–	–	–	–	–	–	–	–	–	–
C#CCn1c2c(c3ccccc3c1=O)C(=O)c1ccccc1-2	10.2 µM	> 100 µM	> 100 µM	88.7 µM	57.1 µM	94.3 µM	65.9 µM	32 µM	42.5 µM	27.7 µM	–	–	–	–	–	–	–	–	–	–
C=C(C)[C@@H]1CC[C@]2(COC(=O)c3ccccc3C(=O)O)CC[C@]3(C)[C@H](CC[C@@H]4[C@@]5(C)CC[C@H](OC(=O)c6ccccc6C(=O)O)C(C)(C)[C@@H]5CC[C@]43C)[C@@H]12	> 100 µM	> 100 µM	> 100 µM	> 100 µM	> 100 µM	> 100 µM	> 100 µM	> 100 µM	77.7 µM	> 100 µM	> 100 µM	71.3 µM	44.9 µM	67.6 µM	16.6 µM	24.1 µM	46 µM	31.6 µM	23.1 µM	> 100 µM
C=CC(=O)N1CCC(CNc2ncnc(N)c2-c2ccc(Oc3ccccc3)cc2)CC1	46.4 µM	> 100 µM	> 100 µM	79.4 µM	34.8 µM	> 100 µM	> 100 µM	92.9 µM	> 100 µM	> 100 µM	19.9 µM	38.5 µM	31.6 µM	24.6 µM	16 µM	29 µM	30.7 µM	17.7 µM	25.7 µM	23.4 µM
CCOc1cc(CCNC)c2c(ccc3ccc(OC)c(O)c32)c1OC	> 100 µM	29.6 µM	28.5 µM	48.2 µM	31.1 µM	30.1 µM	30.7 µM	32.1 µM	32.2 µM	22.4 µM	–	–	–	–	–	–	–	–	–	–
CN1CCN(c2ccc(NC(=O)c3cncnc3Nc3ccc4c(ccn4Cc4cccc(F)c4)c3)cc2)CC1	1.4 µM	1.45 µM	1.22 µM	11 µM	8.25 µM	10.5 µM	2.9 µM	1.37 µM	4.92 µM	5.02 µM	0.673 µM	0.68 µM	0.616 µM	4.81 µM	4.06 µM	5.41 µM	0.922 µM	0.66 µM	1.3 µM	1.15 µM
COc1ccc(OC)c(-c2nc3sc(C)cn3c2/C=C2\C(=O)N(C)c3ccccc32)c1	31.6 µM	82.6 µM	80.3 µM	54.7 µM	31.1 µM	46.7 µM	70 µM	74.6 µM	59.5 µM	41.8 µM	11.5 µM	29.5 µM	25.4 µM	15.7 µM	13.4 µM	19.6 µM	21.9 µM	27.6 µM	22.2 µM	12.7 µM
COc1ccc2c3c1OC1C4(CCC5C(C2)N(CC2CC2)CCC351)OCCO4 (stereo not given)	> 100 µM	> 100 µM	> 100 µM	> 100 µM	> 100 µM	> 100 µM	> 100 µM	> 100 µM	> 100 µM	> 100 µM	–	–	–	–	–	–	–	–	–	–
COC(=O)C1OC(SCCN)C(O)C(O)C1O (stereo not given)	> 100 µM	> 100 µM	> 100 µM	> 100 µM	> 100 µM	> 100 µM	> 100 µM	> 100 µM	> 100 µM	> 100 µM	–	–	–	–	–	–	–	–	–	–
COc1ccc(-c2cncn2-c2ccc(-c3nc4cc(OC)c(OC)c(OC)c4s3)cc2)cc1N	9.55 µM	> 100 µM	> 100 µM	> 100 µM	> 100 µM	> 100 µM	> 100 µM	> 100 µM	> 100 µM	> 100 µM	2.2 µM	> 100 µM	5.91 µM	3.12 µM	9.04 µM	4.44 µM	3.87 µM	5.73 µM	6 µM	4.07 µM
NC(=O)/C=C/c1c[nH]c2nccnc12	> 38.7 µM	52.8 µM	30.5 µM	> 29.1 µM	8.85 µM	28.9 µM	> 25.2 µM	> 100 µM	> 100 µM	> 100 µM	–	–	–	–	–	–	–	–	–	–
Cn1c(=O)c2[nH]c(CCS)nc2n(C)c1=O	> 100 µM	> 100 µM	> 100 µM	> 100 µM	> 100 µM	> 100 µM	> 100 µM	> 100 µM	> 100 µM	> 100 µM	–	–	–	–	–	–	–	–	–	–
COc1ccccc1CNC(=O)/C=C/c1ccc(O)c(O)c1	> 100 µM	> 100 µM	> 100 µM	> 100 µM	> 100 µM	> 100 µM	> 100 µM	> 100 µM	> 100 µM	> 100 µM	45.2 µM	84.6 µM	72.4 µM	66 µM	34.8 µM	> 100 µM	50.5 µM	76.1 µM	42 µM	> 100 µM
Nc1ccccc1-n1c2c(c3ccccc3c1=O)C(=O)c1ccccc1-2	41.6 µM	> 100 µM	> 100 µM	51.3 µM	> 100 µM	40.1 µM	> 100 µM	55.6 µM	60.5 µM	> 100 µM	–	–	–	–	–	–	–	–	–	–
COC(=O)C[C@@H]1CC=CC(=O)/C1=C(O)/C=C/c1ccccc1	4.31 µM	2.86 µM	1.69 µM	1.97 µM	3.98 µM	4.42 µM	0.774 µM	1.56 µM	1.28 µM	3.04 µM	1.24 µM	1.34 µM	0.578 µM	0.308 µM	1.42 µM	2.05 µM	0.268 µM	0.519 µM	0.354 µM	0.374 µM
Fc1cccc(-c2nc(-c3c[nH]c4ncccc34)cs2)c1	> 100 µM	> 100 µM	> 100 µM	> 100 µM	> 100 µM	> 100 µM	> 100 µM	> 100 µM	> 100 µM	> 100 µM	> 100 µM	> 100 µM	5.61 µM	> 100 µM	> 100 µM	36.8 µM	> 100 µM	> 100 µM	25 µM	5.27 µM
